In publication PMC9687610, “Adenosine-Mimicking Derivatives of 3-Aminopyrazine-2-Carboxamide: Towards Inhibitors of Prolyl-tRNA Synthetase with Antimycobacterial Activity” (Biomolecules, 2022):
≈ marks a conversion by molar mass, not a printed value.

Assays:
[1] = tested on: Pseudomonas aeruginosa CCM 3955 (ATCC 27853); assay: Antibacterial microdilution broth (EUCAST), PA; format: cell-based; conditions: Pseudomonas aeruginosa; read after 24 h; read-out: PA MIC
[2] = tested on: Candida parapsilosis CCM 8260 (ATCC 22019); assay: Antifungal microdilution broth (EUCAST), CP; format: cell-based; conditions: Lodderomyces parapsilosis; read after 24 h; read-out: CP MIC
[3] = tested on: Enterococcus faecalis CCM 4224 (ATCC 29212); assay: Antibacterial microdilution broth (EUCAST), EF; format: cell-based; conditions: Enterococcus faecalis; read after 24 h; read-out: EF MIC
[4] = tested on: Lichtheimia corymbifera CCM 8077; assay: Antifungal microdilution broth (EUCAST), LC; format: cell-based; conditions: Lichtheimia corymbifera, CCM8077; read after 24 h; read-out: LC MIC
[5] = tested on: Aspergillus flavus CCM 8363; assay: Antifungal microdilution broth (EUCAST), AFla; format: cell-based; conditions: Aspergillus flavus, CCM8363; read after 24 h; read-out: AFla MIC
[6] = tested on: Mycobacterium smegmatis DSM 43465 (ATCC 607); assay: Microplate Alamar Blue Assay (MABA), M. smegmatis; format: cell-based; conditions: Mycolicibacterium smegmatis; MABA, resazurin after 48 h; read-out: M. smegmatis MIC
[7] = tested on: Mycobacterium tuberculosis H37Ra ITM-M006710 (ATCC 9431); assay: Microplate Alamar Blue Assay (MABA), Mtb H37Ra; format: cell-based; conditions: for MIC: Mycobacterium tuberculosis, 120 h, pH 6.6, MABA, Middlebrook 7H9 broth pH 6.6, resazurin after 120 h, read-out: Mtb H37Ra MIC; for antimycobacterial activity (in words): activity refers to Mtb H37Ra from the primary screening if not otherwise stated
[8] = tested on: Trichophyton interdigitale CCM 8377 (ATCC 9533); assay: Antifungal microdilution broth (EUCAST), TI; format: cell-based; conditions: Trichophyton interdigitale, 72 h, read-out: TI MIC
[9] = tested on: Staphylococcus aureus subsp. aureus CCM 4223 (ATCC 29213); assay: Antibacterial microdilution broth (EUCAST), SA; format: cell-based; conditions: Staphylococcus aureus; read after 24 h; read-out: SA MIC
[10] = tested on: Acinetobacter baumannii DSM 30007 (ATCC 19606); assay: Antibacterial microdilution broth (EUCAST), ACI; format: cell-based; conditions: Acinetobacter baumannii; read after 24 h; read-out: ACI MIC
[11] = tested on: Staphylococcus aureus subsp. aureus methicillin-resistant (MRSA) CCM 4750 (ATCC 43300); assay: Antibacterial microdilution broth (EUCAST), MRSA; format: cell-based; conditions: Staphylococcus aureus; read after 24 h; read-out: MRSA MIC
[12] = tested on: Candida albicans CCM 8320 (ATCC 24433); assay: Antifungal microdilution broth (EUCAST), CA; format: cell-based; conditions: Candida albicans; read after 24 h; read-out: CA MIC
[13] = tested on: Klebsiella pneumoniae CCM 4415 (ATCC 10031); assay: Antibacterial microdilution broth (EUCAST), KP; conditions: read after 24 h
[14] = tested on: HepG2 human hepatocellular carcinoma cells; assay: In vitro HepG2 cytotoxicity (CellTiter 96); conditions: Homo sapiens, HepG2, 24 h, read-out: HepG2 IC50, 24 h incubation; * limit = highest evaluated concentration (precipitation in medium); ** over the 1000 µM limit
[15] = tested on: Escherichia coli CCM 3954 (ATCC 25922); assay: Antibacterial microdilution broth (EUCAST), EC; format: cell-based; conditions: Escherichia coli; read after 24 h; read-out: EC MIC
[16] = tested on: M. aurum DSM 43999 (ATCC 23366); assay: Microplate Alamar Blue Assay (MABA), M. aurum; format: cell-based; conditions: Mycolicibacterium aurum; MABA, resazurin after 72 h; read-out: M. aurum MIC
[17] = tested on: Candida tropicalis CCM 8264 (ATCC 750); assay: Antifungal microdilution broth (EUCAST), CT; format: cell-based; conditions: Candida tropicalis; read after 24 h; read-out: CT MIC
[18] = tested on: Staphylococcus epidermidis CCM 4418 (ATCC 12228); assay: Antibacterial microdilution broth (EUCAST), SE; format: cell-based; conditions: read after 24 h, read-out: SE MIC
[19] = tested on: Candida krusei CCM 8271 (ATCC 6258); assay: Antifungal microdilution broth (EUCAST), CK; format: cell-based; conditions: Pichia kudriavzevii; read after 24 h; read-out: CK MIC
[20] = tested on: Aspergillus fumigatus ATCC 204305; assay: Antifungal microdilution broth (EUCAST), AF; format: cell-based; conditions: Aspergillus fumigatus, ATCC204305; read after 24 h; read-out: AF MIC

Structure (SMILES)	MIC [1] [µM]	MIC [2] [µM]	MIC [3] [µM]	MIC [4] [µM]	MIC [5] [µM]	MIC [6] [µg/mL]	MIC [7] [µg/mL]	MIC [8] [µM]	MIC [9] [µM]	MIC [10] [µM]	melting point [°C]	MIC [11] [µM]	MIC [12] [µM]	KP MIC [13] [µM]	IC50 [14] [µM]	MIC [15] [µM]	MIC [16] [µg/mL]	MIC [17] [µM]	MIC [18] [µM]	MIC [19] [µM]	also measured
CNC(=O)c1nccnc1NC(=O)c1ccc(Br)cc1 [Compound 35]	> 125	> 125	> 125	> 125	> 125	≥ 500	≥ 500	> 125	> 125	> 125	202 to 202.5	> 125	> 125	> 125	> 50	> 125	≥ 500	> 125	> 125	> 125	MIC [20]: > 125 µM
Cc1ccc(C(=O)Nc2nccnc2C(=O)N(C)C)cc1 [Compound 36]	> 125	> 125	> 125	> 125	> 125	≥ 500	≥ 500	> 125	> 125	> 125	188.7 to 189.5	> 125	> 125	> 125	> 1000	> 125	≥ 500	> 125	> 125	> 125	antimycobacterial activity (in words) [7]: inactive; MIC [20]: > 125 µM
CN(C)C(=O)c1nccnc1NC(=O)c1ccc(Cl)cc1 [Compound 37]	> 500	> 500	> 500	> 500	> 500	≥ 500	≥ 500	> 500	> 500	> 500	184.1 to 185.3	> 500	> 500	> 500	> 1000	> 500	≥ 500	> 500	> 500	> 500	antimycobacterial activity (in words) [7]: inactive; MIC [20]: > 500 µM
O=c1[nH]c(-c2ccccc2)nc2nccnc12 [Compound 39]	> 125	> 125	> 125	> 125	> 125	≥ 500	62.5 (≈ 279 µM)	> 125	> 125	> 125	283.5 to 284.5	> 125	> 125	> 125	> 1000	> 125	125 (≈ 557 µM)	> 125	> 125	> 125	MIC [20]: > 125 µM
Cc1ccc(-c2nc3nccnc3c(=O)[nH]2)cc1 [Compound 40]	> 125	> 125	> 125	> 125	> 125	≥ 250	31.2 (≈ 131 µM)	> 125	> 125	> 125	300.5 to 302	> 125	> 125	> 125	> 1000	> 125	250 (≈ 1050 µM)	> 125	> 125	> 125	MIC [20]: > 125 µM
O=c1[nH]c(-c2ccc(F)cc2)nc2nccnc12 [Compound 41]	> 125	> 125	> 125	> 125	> 125	≥ 500	≥ 500	> 125	> 125	> 125	277 to 279.5	> 125	> 125	> 125	> 1000	> 125	≥ 500	> 125	> 125	> 125	MIC [20]: > 125 µM
